US20110059035A1, “COMPOSITIONS BASED ON POLYMER/HYDROGEN PEROXIDE COMPLEXES AND USES THEREOF” (L"OREAL, priority 2008, published 2011)

Assays:
[1] = Activator selection: pH of Peroxydone K-30 dispersion in water after addition of activator; assay type: physicochemical; conditions: for Associated pH: at the minimum amount of activator, 11 g of Peroxydone K-30 in 75 g of water; for Minimum amount in order to reach a pH > 9 or a plateau pH if pH < 9: initial amount of 11 g of Peroxydone K-30, i.e. 2 g of H2O2, in 75 g of water
Experimental: In the case of a PVP-H2O2 complex, the following protocol can be used to select the activators. A dispersion of 11 g of Peroxydone K-30® (ISP) in 75 g of water is produced, to which increasing amounts of activator are added. pH is measured immediately after each addition. The activator is added in excess until the activator/H2O2 ratio by weight reaches 10.

[2] = In vitro bleaching test on a dye (lightening activity); conditions: H2O2 4% or PVP-H2O2 22% (eq. 4% H2O2), 1 g in 19 g dye solution, pH 10.7, OD 630 nm
Experimental: Protocol for in vitro bleaching test Dye solution or “solution X” is a solution of disodium salt of brilliant blue FCF (CI: 42090) from LCW (Sensient). The dye solution is prepared as follows: 15 mg of dye powder are dissolved in 50 ml of borate buffer pH 10.7 and then again diluted to 1/50th. […] After stirring the mixture in the dark for 10 min, the dispersion is filtered (0.45 μm cellulose filter) and the optical density is measured over the range from 400 to 800 nm at 25° C. […] The decoloring effectiveness is reflected by the bleaching percentage at t=10 min (i.e. [ODt10 min (mixture)−ODt10 min (dye)/ODt0 (dye)]×100.

| Structure (SMILES) | Associated pH [1] | Minimum amount in order to reach a pH > 9 or a plateau pH if pH < 9 [1] [g] | bleaching percentage at t=10 min ([2]; dilution medium PEG-8) [%] | bleaching percentage at t=10 min ([2]; dilution medium butylene glycol) [%] | bleaching percentage at t=10 min ([2]; dilution medium ethanol) [%] | bleaching percentage at t=10 min ([2]; dilution medium glycerol) [%] |
| --- | --- | --- | --- | --- | --- | --- |
| [Ca+2].[O-][O-] [Calcium peroxide] | 9.3 | 0.05 |  |  |  |  |
| OO [Product H2O2, hydrogen peroxide] |  |  | 61 | 63 | 72 | 27 |
| O=C([O-])O.[Na+] [Sodium bicarbonate] | 8.1 | 0.9 |  |  |  |  |
| O=[Si]([O-])[O-].[Na+].[Na+] [Sodium metasilicate] | 9.8 | 0.11 |  |  |  |  |
